# Source: ChEMBL document CHEMBL1157221, “14,15-secopregnane derivatives from the leaves of Solenostemma argel” (J Nat Prod, 2006)
# Active and inactive are the calls of the source. The calls are words filed in the database; no cut-off is given here.
# Test system: RAW264.7
# Experiment: Antiinflammatory activity against mouse RAW264.7 cells assessed as stimulation LPS-induced TNFalpha release at 100 uM pretreated for 30 mins before LPS challenge by ELISA
# Type: functional, cell-based
row,SMILES,Activity
1,CO[C@@H]1[C@@H](O)[C@H](O[C@@H]2[C@@H](C)O[C@@H](O[C@H]3[C@@H](OC)C[C@H](O[C@H]4[C@H](O)C[C@H](O[C@H]5CC[C@@]6(C)C(=CC[C@@H]7[C@@H]6CC[C@]6(C)[C@@H]8[C@H]9CO[C@@]8(C)O[C@@]76O9)C5)O[C@@H]4C)O[C@@H]3C)C[C@H]2OC)O[C@H](C)[C@H]1O[C@@H]1O[C@H](CO)[C@@H](O)[C@H](O)[C@H]1O,Active
2,CO[C@H]1C[C@H](O[C@H]2CC[C@@]3(COC(C)=O)C(=CC[C@@H]4[C@@H]3CC[C@]3(C)[C@@H]5[C@H]6CO[C@@]5(C)O[C@@]43O6)C2)O[C@H](C)[C@H]1O[C@H]1C[C@H](OC)[C@H](O[C@H]2C[C@@H](O)[C@H](O[C@H]3C[C@@H](OC)[C@H](O[C@@H]4O[C@H](CO)[C@@H](O)[C@H](O)[C@H]4O)[C@@H](C)O3)[C@@H](C)O2)[C@@H](C)O1,Active
3,COC(=O)C[C@H](O[C@H]1CC[C@@]2(C)C(=CC[C@@H]3[C@@H]2CC[C@]2(C)[C@@H]4[C@H]5CO[C@@]4(C)O[C@@]32O5)C1)O[C@H](C)C(=O)O,inactive
4,CO[C@@H]1[C@@H](O)[C@H](O[C@@H]2[C@@H](C)O[C@@H](O[C@H]3[C@@H](OC)C[C@H](O[C@@H]4[C@@H](C)O[C@@H](O[C@H]5CC[C@@]6(CO)C(=CC[C@@H]7[C@@H]6CC[C@]6(C)[C@@H]8[C@H]9CO[C@@]8(C)O[C@@]76O9)C5)C[C@H]4OC)O[C@@H]3C)C[C@H]2OC)O[C@H](C)[C@H]1O[C@@H]1O[C@H](CO)[C@@H](O)[C@H](O)[C@H]1O,Active
